Test results published in ChEMBL document CHEMBL3045180, “Synthesis of novel 4,6-diaryl-2-aminopyrimidines as potential antiplasmodial agents” (Med Chem Res, 2013).
≈ marks a conversion by molar mass, not a printed value.

Experiments:
[1] = Haemolytic activity against Homo sapiens (human) RBC at >50 ug/ml up to 24 hr; assay type: ADME, cell-based; conditions: erythrocyte
Plasmodium falciparum = assay: Antiplasmodial activity against chloroquine-sensitive Plasmodium falciparum MRC 20 infected in human red blood cells measured up to 24 hr; assay type: functional, organism-based; conditions: MRC 20, 24 h
[2] = Haemolytic activity against Homo sapiens (human) RBC at >25 ug/ml up to 24 hr; assay type: ADME, cell-based; conditions: erythrocyte
[3] = Haemolytic activity against Homo sapiens (human) RBC at >12.5 ug/ml up to 24 hr; assay type: ADME, cell-based; conditions: erythrocyte

## COc1cccc(-c2cc(-c3cc(OC)ccc3O)nc(N)n2)c1
[1]
  Activity: Toxic
Plasmodium falciparum
  IC50: > 25 µg/mL

## COc1cccc(-c2cc(-c3ccc(OCc4ccccc4)cc3O)nc(N)n2)c1
Plasmodium falciparum
  IC50: 7.61 µg/mL (≈ 19.1 µM)
[2]
  Activity: Toxic

## COc1ccc(-c2cc(-c3ccc(Cl)cc3)nc(N)n2)c(O)c1
Plasmodium falciparum
  IC50: 21.3 µg/mL (≈ 65.1 µM)
[2]
  Activity: Toxic

## COc1ccc(-c2cc(-c3ccc(OCc4ccccc4)cc3O)nc(N)n2)cc1
Plasmodium falciparum
  IC50: 5.01 µg/mL (≈ 12.5 µM)
[2]
  Activity: Toxic

## COc1ccc(O)c(-c2cc(-c3ccc(F)cc3)nc(N)n2)c1
[1]
  Activity: Toxic
Plasmodium falciparum
  IC50: 25.5 µg/mL (≈ 82 µM)

## COc1ccc(-c2cc(-c3ccc(OCc4ccccc4)cc3O)nc(N)n2)cc1OC
[3]
  Activity: Toxic
Plasmodium falciparum
  IC50: 1.61 µg/mL (≈ 3.75 µM)

## COc1ccc(O)c(-c2cc(-c3ccccc3Cl)nc(N)n2)c1
[1]
  Activity: Toxic
Plasmodium falciparum
  IC50: 29.3 µg/mL (≈ 89.5 µM)

## Cc1ccc(-c2cc(-c3ccc(OCc4ccccc4)cc3O)nc(N)n2)cc1
Plasmodium falciparum
  IC50: 14.9 µg/mL (≈ 38.8 µM)
[2]
  Activity: Toxic

## C=C[C@H]1C[N@@]2CC[C@H]1C[C@H]2[C@H](O)c1ccnc2ccc(OC)cc12 [QUININE]
Plasmodium falciparum
  IC50: 29 µg/mL (≈ 89.4 µM)
[2]
  Activity: Toxic

## Nc1nc(-c2ccc(OCc3ccccc3)cc2O)cc(-c2ccccc2Cl)n1
Plasmodium falciparum
  IC50: 18.9 µg/mL (≈ 46.7 µM)
[2]
  Activity: Toxic

## COc1ccc(-c2cc(-c3ccc(F)cc3)nc(N)n2)c(O)c1
[1]
  Activity: Toxic
Plasmodium falciparum
  IC50: 15.2 µg/mL (≈ 49 µM)

## Nc1nc(-c2ccc(F)cc2)cc(-c2ccc(OCc3ccccc3)cc2O)n1
[1]
  Activity: Toxic
Plasmodium falciparum
  IC50: 16.7 µg/mL (≈ 43 µM)

## COc1ccc(-c2cc(-c3ccc(C)cc3)nc(N)n2)c(O)c1
Plasmodium falciparum
  IC50: 8.71 µg/mL (≈ 28.3 µM)
[2]
  Activity: Toxic

## COc1ccc(-c2cc(-c3ccc(OC)cc3O)nc(N)n2)cc1
[3]
  Activity: Toxic
Plasmodium falciparum
  IC50: 1.78 µg/mL (≈ 5.5 µM)

## Cc1cccc(-c2cc(-c3ccc(OCc4ccccc4)cc3O)nc(N)n2)c1
Plasmodium falciparum
  IC50: 35.6 µg/mL (≈ 92.7 µM)
[2]
  Activity: Toxic

## COc1ccc(O)c(-c2cc(-c3cccc(Cl)c3)nc(N)n2)c1
Plasmodium falciparum
  IC50: 9.53 µg/mL (≈ 29.1 µM)
[2]
  Activity: Toxic

## CCN(CC)CCCC(C)Nc1ccnc2cc(Cl)ccc12 (stereo not drawn) [CHLOROQUINE]
[2]
  Activity: Toxic
